# Laboratory results reported in article PMC10197068 (Bioconjugate Chemistry, 2023).
# Where “and” joins values, the source holds several entries; their conditions need not be identical. Equal values may be shown once.
# Columns and labels:
# [1] = tested on: G2T6 (Na+) dimeric HTelo G4 DNA, AGGG(TTAGGG)3(TTA)5(TTAGGG)4; assay: CD melting with G2T6 (Na+); format: binding, human; conditions: for ΔTm G2T6 (Na+): CD melting at 295 nm, 25 to 95 °C at 2 °C/min, 100 mM NaCl, 10 mM Li cacodylate, pH 7.3, [G4 unit] 6 μM (3 μM dimeric sequence), [salphen unit] 12 μM
# Description: (§1) Next, the DNA binding properties of the monomeric and dimeric compounds were studied. […] The following notation is used: […] The CD melting experiments were conducted solely with Na^+ stabilized DNA, which forms an antiparallel topology in solution (cf., in the presence of K^+ a mixture of topologies is observed). During the assay the temperature was increased from 25 to 95 °C upon which the intensity of signals with negative ellipticity at ca. 265 nm and positive ellipticity at ca. 295 (characteristic of an antiparallel G4 structure) decreased-see Figure 4a. This indicates the expected unfolding of the G4 DNA structure as the temperature increases. The changes in intensity were subsequently used to produce the corresponding melting curves (Figure 4b) for each sequence in the absence and presence of the different compounds under study. From these curves, the ΔTm values for the different sequences and compounds were determined, and the results are summarized in Figure 4c (see Supplementary Table 1 for values). […] G-Quadruplex oligonucleotides were purchased from Eurogentec (Belgium), and CT-DNA was purchased from Sigma-Aldrich. […] Prior to use, the DNA stock solutions were annealed by heating at 95 °C for 5 min and then cooling to room temperature overnight. Experiments were carried out on a Jasco J-810 spectrophotometer using a 1 cm quartz cuvette. Temperature was controlled using a Peltier module. The signal at 295 nm was monitored as temperature was increased for 25 to 95 °C at a rate of 2 °C/min. CD melting experiments were carried out with the appropriate G4 DNA (100 mM NaCl, 10 mM Li cacodylate, pH 7.3). Sample preparation was carried out by combining stock solutions of ligand and DNA in the appropriate buffer. […] Melting temperatures were obtained by curve fitting in Graphpad Prism 8. The data was normalized and fitted to a variable slope Hill equation, and the melting temperature was defined at the temperature at which y = 0.5.
# [2] = tested on: G1 (Na+) monomeric HTelo G4 DNA; assay: Emission titration with G1 (Na+); format: binding, human; conditions: Table S2, unit not given, ligand 2 μM, 100 mM NaCl, 10 mM Li cacodylate, pH 7.3, exc 440 nm, em 590 nm, triplicate
# Description: (§2) Next, emission titrations were carried out with the emissive Pt^II compounds M2 and D3–8 and G4/duplex DNA to obtain association constants. Both Na^+ and K^+ stabilized monomeric and dimeric G4 DNA were investigated. Additionally, titrations were carried out with CT-DNA to evaluate the selectivity for G4 versus duplex DNA. Figure 5 summarizes the obtained results (see Figures S24–S37 and Table S2 for a full set of titration data). First discussed are the experiments conducted in Na^+ buffer, in which the G4 topology formed is antiparallel.[41] […] As discussed previously, this could potentially be caused by a “sandwiched” binding mode in which the metal-salphen complex sits between two G-quadruplex units. For dimeric metal-salphen complexes D3–8, however, there are several differences when compared to the CD melting studies. […] Upon increasing the linker length to a two-amino-acid sequence (RR and KK for compounds D4 and D5, respectively), larger Ka values were obtained with minimal change to the pattern of selectivity. […] Increasing the linker length to an eight-amino-acid sequence (RRRRRRRR) led to a similar stabilization of G2T6, while G1 stabilization increased.
# (§3) G-Quadruplex oligonucleotides were purchased from Eurogentec (Belgium), and CT-DNA was purchased from Sigma-Aldrich. Stock solutions were prepared via dilution in the appropriate buffers to concentrations of 300–400 μM determined by UV–vis measurements in which increasing amounts of DNA were added to a cuvette and the absorbance at 260 nm recorded using an Agilent Cary UV 60 spectrometer. Prior to use, the DNA stock solutions were annealed by heating at 95 °C for 5 min and then cooling to room temperature overnight.
# (§4) Experiments were carried out using a BMG Clariostar Microplate reader with Greiner Bio-One half-volume (100 μL/well) plates. Excitation was carried out at 440 nm and recorded from 500 to 700 nm in addition to a matrix scan at 590 nm. Titrations were carried out using G1, G2T1, and G2T6 (Na^+) G4 DNA (100 mM NaCl, 10 mM Li cacodylate, pH 7.3); G1, G2T1, and G2T6 (K^+) G4 DNA (100 mM KCl, 10 mM Li cacodylate, pH 7.3); and CT-DNA (100 mM KCl, 10 mM Li cacodylate, pH 7.3). Ligand concentration was kept constant at 2 μM, and the following DNA equivalents were tested: 0, 0.1, 0.2, 0.3, 0.4, 0.5, 0.75, 1, 1.5, 2, 3, and 5 (for CT-DNA 10× base pair equivalents were used, i.e., 1 to 50 BPE). Sample preparation was carried out by preparing stock solutions of double concentration ligand (4 μM) and DNA in the appropriate buffer, before 50 μL of each was added to the appropriate well and mixed. Experiments were conducted in triplicate and binding constants were obtained by curve fitting in Graphpad Prism 8 using eq 1.[46] [drawing 1] 1
# (§5) Fluorescence response (y) was fitted against DNA concentration (x); R is the machine response, K is the association constant of ligand and DNA, L is the concentration of ligand, and n is the number of binding sites per DNA. The values of L and n were varied so that that the L was equal to the number of salphen units and n was equal to the number of G4 faces per DNA. The matrix scan results were used to plot the titration curves and 500–700 nm scan results were used to confirm that expected curve shapes and shifts were observed.
# [3] = tested on: G2T6 (K+) dimeric HTelo G4 DNA; assay: Emission titration with G2T6 (K+); format: binding, human; conditions: Table S2, unit not given, ligand 2 μM, 100 mM KCl, 10 mM Li cacodylate, pH 7.3, exc 440 nm, em 590 nm, triplicate
# Description: as §2, §3, §4, §5
# [4] = tested on: G2T1 (Na+) dimeric HTelo G4 DNA; assay: Emission titration with G2T1 (Na+); format: binding, human; conditions: Table S2, unit not given, ligand 2 μM, 100 mM NaCl, 10 mM Li cacodylate, pH 7.3, exc 440 nm, em 590 nm, triplicate
# Description: as §2, §3, §4, §5
# [5] = tested on: G1 (K+) monomeric HTelo G4 DNA; assay: Emission titration with G1 (K+); format: binding, human; conditions: Table S2, unit not given, ligand 2 μM, 100 mM KCl, 10 mM Li cacodylate, pH 7.3, exc 440 nm, em 590 nm, triplicate
# Description: as §2, §3, §4, §5
# [6] = tested on: G1 (Na+) monomeric HTelo G4 DNA, AGGG(TTAGGG)3; assay: CD melting with G1 (Na+); format: binding, human; conditions: CD melting at 295 nm, 25 to 95 °C at 2 °C/min; 100 mM NaCl, 10 mM Li cacodylate, pH 7.3; [G4 unit] 6 μM, [salphen unit] 12 μM
# Description: as §1
# [7] = tested on: G2T1 (K+) dimeric HTelo G4 DNA; assay: Emission titration with G2T1 (K+); format: binding, human; conditions: Table S2, unit not given, ligand 2 μM, 100 mM KCl, 10 mM Li cacodylate, pH 7.3, exc 440 nm, em 590 nm, triplicate
# Description: as §2, §3, §4, §5
# [8] = tested on: G2T1 (Na+) dimeric HTelo G4 DNA, AGGG(TTAGGG)7; assay: CD melting with G2T1 (Na+); format: binding, human; conditions: for ΔTm G2T1 (Na+): CD melting at 295 nm, 25 to 95 °C at 2 °C/min, 100 mM NaCl, 10 mM Li cacodylate, pH 7.3, [G4 unit] 6 μM (3 μM dimeric sequence), [salphen unit] 12 μM
# Description: as §1
# [9] = tested on: G2T6 (Na+) dimeric HTelo G4 DNA; assay: Emission titration with G2T6 (Na+); format: binding, human; conditions: Table S2, unit not given, ligand 2 μM, 100 mM NaCl, 10 mM Li cacodylate, pH 7.3, exc 440 nm, em 590 nm, triplicate
# Description: as §2, §3, §4, §5
# [10] = tested on: G2T6 (DNA, G4) AGGGTTAGGGTTAGGGTTAGGGTTATTATTATTATTATTAGGGTTAGGGTTAGGGTTAGGG; assay: CD melting at 295 nm; conditions: 100 mM NaCl; 10 mM Li cacodylate, pH 7.3; 6 μM compound (12 μM salphen units), 3 μM DNA
# [11] = tested on: G2T1 (DNA, G4) AGGGTTAGGGTTAGGGTTAGGGTTAGGGTTAGGGTTAGGGTTAGGG; assay: CD melting at 295 nm; conditions: 100 mM NaCl; 10 mM Li cacodylate, pH 7.3; 6 μM compound (12 μM salphen units), 3 μM DNA
# CT-DNA (duplex DNA) = assay: Emission titration with duplex DNA; format: binding
# Description: Next, emission titrations were carried out with the emissive Pt^II compounds M2 and D3–8 and G4/duplex DNA to obtain association constants. Both Na^+ and K^+ stabilized monomeric and dimeric G4 DNA were investigated. Additionally, titrations were carried out with CT-DNA to evaluate the selectivity for G4 versus duplex DNA. Figure 5 summarizes the obtained results (see Figures S24–S37 and Table S2 for a full set of titration data). First discussed are the experiments conducted in Na^+ buffer, in which the G4 topology formed is antiparallel.[41] […] As discussed previously, this could potentially be caused by a “sandwiched” binding mode in which the metal-salphen complex sits between two G-quadruplex units. For dimeric metal-salphen complexes D3–8, however, there are several differences when compared to the CD melting studies. […] Upon increasing the linker length to a two-amino-acid sequence (RR and KK for compounds D4 and D5, respectively), larger Ka values were obtained with minimal change to the pattern of selectivity. […] Increasing the linker length to an eight-amino-acid sequence (RRRRRRRR) led to a similar stabilization of G2T6, while G1 stabilization increased. […]
# as §3, with “Prior to use, the DNA stock solutions were annealed by heating at 95 °C for 5 min and then cooling to room temperature overnight.” left out
# Experiments were carried out using a BMG Clariostar Microplate reader with Greiner Bio-One half-volume (100 μL/well) plates. Excitation was carried out at 440 nm and recorded from 500 to 700 nm in addition to a matrix scan at 590 nm. […]
# Fluorescence response (y) was fitted against DNA concentration (x); R is the machine response, K is the association constant of ligand and DNA, L is the concentration of ligand, and n is the number of binding sites per DNA. […]
ΔTm [10] [°C],ΔTm [11] [°C],Compound,ΔTm G2T6 (Na+) [1],fold increase in stabilization of G2T6 ([1]; ΔTm of D7 relative to D3) [fold],"Association constant G1 (Na+), mean [2]","Association constant G2T6 (K+), mean [3]","Association constant G2T1 (Na+), mean [4]","Association constant G1 (K+), mean [5]",ΔTm G1 (Na+) [6],"Association constant G2T1 (K+), mean [7]",ΔTm G2T1 (Na+) [8],fold increase in stabilization of G2T1 ([8]; ΔTm of D7 relative to D4) [fold],"Association constant G2T6 (Na+), mean [9]","Ka for duplex DNA (CT-DNA (duplex DNA); CT-DNA up to 50 base pair equivalents, 100 mM KCl, 10 mM Li cacodylate, pH 7.3, ligand 2 μM)",fold reduction in duplex DNA binding (CT-DNA (duplex DNA); compared with monomeric complex M2) [fold]
,,RKKR [Compound D7],13.81 °C and 13.8 °C,2.1,0.21,0.42,0.36,0.39,2.6 °C,0.18,16.33 °C and 16.3 °C,1.1,0.69,,
,,C[N+](C)(C)CCOc1ccc2c(c1)[O][Ni][O]c1cc(OCC[N+](C)(C)C)ccc1C=Nc1cc(C(=O)NCc3cn(CCOCCOCCn4cc(CNC(=O)c5ccc6c(c5)N=Cc5ccc(OCC[N+](C)(C)C)cc5[O][Ni][O]c5cc(OCC[N+](C)(C)C)ccc5C=N6)nn4)nn3)ccc1N=C2.F[P-](F)(F)(F)(F)F.F[P-](F)(F)(F)(F)F.F[P-](F)(F)(F)(F)F.F[P-](F)(F)(F)(F)F [Compound D2],11.14 °C,,,,,,2.66 °C,,13.80 °C,,,,
13.8,16.3,C[N+](C)(C)CCOc1ccc(C=Nc2ccc(C(=O)NCc3cn(CC(=O)N[C@@H](CCCNC(=N)N)C(=O)N[C@@H](CCCCN)C(=O)N[C@@H](CCCCN)C(=O)N[C@@H](CCCNC(=N)N)C(=O)N[C@@H](Cn4cc(CNC(=O)c5ccc(N=Cc6ccc(OCC[N+](C)(C)C)cc6[O-])c(N=Cc6ccc(OCC[N+](C)(C)C)cc6[O-])c5)nn4)C(N)=O)nn3)cc2N=Cc2ccc(OCC[N+](C)(C)C)cc2[O-])c([O-])c1.[Pt+2].[Pt+2],,,,,,,,,,,,,
,,C[N+](C)(C)CCOc1ccc2c(c1)[O][Pt][O]c1cc(OCC[N+](C)(C)C)ccc1C=Nc1cc(C(=O)NCc3cn(CCOCCn4cc(CNC(=O)c5ccc6c(c5)N=Cc5ccc(OCC[N+](C)(C)C)cc5[O][Pt][O]c5cc(OCC[N+](C)(C)C)ccc5C=N6)nn4)nn3)ccc1N=C2 [Compound D3],6.43 °C and 6.4 °C,,0.17,0.16,0.24,0.17,3.02 °C and 3.0 °C,0.13,15.29 °C,,0.19,5.0 × 10^3 M^–1,10
,,RRRR [Compound D6],13.27 °C,,0.07,0.52,0.29,0.28,3.49 °C,0.18,14.83 °C,,0.99,,
